The structures appear in SMILES notation. Read-outs that look alike come from different tables or passages of the source.

One data set concerns the target mGlu2 receptor (Homo sapiens, UniProt Q14416). The experiment in a line: Potentiation of glutamate-induced increase in intracellular calcium with a mGluR2 expressing cell line (FLIPR). In kind it is cell-based. On the set-up: expressed in transfected cells; host or cells: RGT cells (co-transfected with GLAST), stably transfected with Galpha15. The settings on record: for Emax / Emax at 1 µM / Emax at 3 µM: read-out: % Maximal Response (mean ± SD, n = 2); for Emax at 1 µM: 1 μM compound, no agonist, glutamate series 30 μM to 10 nM; for Emax at 3 µM: 3 μM compound, Buffer (no agonist). How it is done: Potentiation of Glutamate-Induced Increase in Intracellular Calcium with a mGluR2 Expressing Cell Line.
Cell lines expressing human mGlu2 receptors were derived as previously described (Desai, Burnett, Mayne, Schoepp, Mol. Pharmacol. 48, 648-657, 1995) and cultured in DMEM with 5% dialyzed fetal bovine serum, 1 mM glutamine, 1 mM sodium pyruvate, 50 μg/ml Geneticin G418, and 0.2 mg/ml hygromycin B. Confluent cultures were passaged weekly. […] The RGT cell line expressing the mGluR2 receptors was stably transfected with the promiscuous G-protein, Galpha15 to change the signaling pathway to the mGlu2 receptor to one that could be easily measured through release of intracellular calcium. Thus, intracellular calcium levels were monitored before and after the addition of drugs on a Fluorometric Imaging Plate Reader (i.e. FLIPR, Molecular Devices). The following buffer was used throughout as an assay buffer: 10 mM KCl, 138 mM NaCl, 5 mM Ca Cl2, 1 mM MgCl2, 4 mM NaH2PO4, 10 mM Glucose, 10 mM HEPES, pH 7.4. Cells that had been plated 48 h prior at a density of 30-40,000 cells per well in a 96-well plate were loaded with a calcium-sensitive dye for 90 min at 25° C. Fluo-3 (2 mM in DMSO, Molecular Probes) were mixed with a equal volume of 10% pluronic acid in DMSO, and diluted to 8 μM into the buffer described above containing 10% fetal bovine serum to make the loading buffer. Following loading of the cells, the loading buffer was removed and replaced with assay buffer prior to drug addition and monitoring on the FLIPR.
(In general: Calcium flux is commonly read through the fluorescence of an indicator in the cells.)

In another data set the test system is mice. The experiment in a line: Electroshock-induced seizures (tonic extensor seizures). The settings on record: electroshock 30 minutes later, percentage of mice protected from seizures. In kind it is in vivo, mouse. How it is done: Application of electrical stimulation by corneal electrodes to mice can induce tonic hindlimb-extensor seizures. Blockade of tonic extensor seizures induced by electroshock is considered predictive for drugs which block seizure propagation and may be effective in preventing various seizures in humans, including epileptic seizures.
Vehicle or a dose of a test drug are administered to groups of 5 to 10 mice each. Thirty minutes later, electroshock (10 mA, 0.2 sec duration) is administered by transcorneal electrodes. […] The data are reported as the percentage of mice which are protected from seizures.

Setting [1] is: 10 nM Glutamate + 1 μM compound.
[2] abbreviates: 30 nM Glutamate + 1 μM compound.
The mark [3] stands for this setting: 100 nM Glutamate + 1 μM compound.
The mark [4] stands for this setting: 300 nM Glutamate + 1 μM compound.
Where [5] appears, read: 10 μM Glutamate + 1 μM compound.
[6] abbreviates: 30 μM Glutamate + 1 μM compound.

Chain of mGlu2 receptor (Q14416 19-872): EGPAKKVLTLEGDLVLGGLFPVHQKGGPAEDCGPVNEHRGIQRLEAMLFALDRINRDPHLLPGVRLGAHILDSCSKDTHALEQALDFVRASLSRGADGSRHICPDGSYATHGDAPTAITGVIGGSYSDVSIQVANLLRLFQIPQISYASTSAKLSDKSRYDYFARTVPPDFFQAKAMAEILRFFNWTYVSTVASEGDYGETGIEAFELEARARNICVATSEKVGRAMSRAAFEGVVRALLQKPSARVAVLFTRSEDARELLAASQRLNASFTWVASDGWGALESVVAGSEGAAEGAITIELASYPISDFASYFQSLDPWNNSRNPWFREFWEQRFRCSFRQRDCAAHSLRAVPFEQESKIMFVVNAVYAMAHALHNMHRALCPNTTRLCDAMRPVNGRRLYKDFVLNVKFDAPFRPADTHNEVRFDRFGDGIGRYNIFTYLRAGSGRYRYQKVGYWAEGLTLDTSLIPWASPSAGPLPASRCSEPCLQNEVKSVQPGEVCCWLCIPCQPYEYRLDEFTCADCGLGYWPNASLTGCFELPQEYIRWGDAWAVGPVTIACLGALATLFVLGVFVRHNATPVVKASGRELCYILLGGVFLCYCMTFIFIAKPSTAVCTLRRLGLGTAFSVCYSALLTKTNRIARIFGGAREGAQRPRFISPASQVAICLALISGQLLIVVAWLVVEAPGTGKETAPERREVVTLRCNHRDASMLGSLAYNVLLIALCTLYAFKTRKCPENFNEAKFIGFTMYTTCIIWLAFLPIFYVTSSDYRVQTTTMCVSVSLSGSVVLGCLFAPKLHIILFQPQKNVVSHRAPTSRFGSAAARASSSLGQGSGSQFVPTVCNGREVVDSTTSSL

On to `COc1ccccc1Oc1cccc(N(Cc2cccnc2)S(=O)(=O)CC(F)(F)F)c1` [Example 1, N-(3-(2-Methoxyphenoxy)phenyl)-N-(2,2,2-trifluoroethylsulfonyl)pyrid-3-ylmethylamine], for which the Emax is -0.3 ± 0.2% on mGlu2 receptor (setting [1]); 2.2 ± 1.3% at mGlu2 receptor (setting [2]); 1.5 ± 1.2% on mGlu2 receptor (setting [3]); 42.5 ± 4.3% on mGlu2 receptor (setting [4]); 79.2 ± 14.6% at mGlu2 receptor (1 μM Glutamate + 1 μM compound); 112 ± 10.3% at mGlu2 receptor (3 μM Glutamate + 1 μM compound). Besides, the Emax came to 108 ± 10.7% at mGlu2 receptor (setting [5]) and 117 ± 4.3% on mGlu2 receptor (setting [6]). For the same compound, the Emax at 1 µM at mGlu2 receptor was 0.1 ± 0.1%. Further, the “% Maximal Glutamate Response (as defined by 30 μM Glutamate) mean ± SD” value at mGlu2 receptor (20 μM compound + 0.5 μM L-glutamate) amounted to 85.5 ± 5.8%; on mGlu2 receptor (20 μM compound alone), 2.3 ± 0.8%.

As to `COc1ccccc1Oc1ccc(N(Cc2cccnc2)S(=O)(=O)CC(F)(F)F)cc1Cl` [Example 9, N-(4-(2-Methoxyphenoxy)-3-chlorophenyl)-N-(2,2,2-trifluoroethylsulfonyl)pyrid-3-ylmethylamine], the Emax was 2.4 ± 0.3% at mGlu2 receptor (setting [1]); 4.7 ± 0.4% on mGlu2 receptor (setting [2]); 20.5 ± 4.3% on mGlu2 receptor (setting [3]); 60 ± 10.6% at mGlu2 receptor (setting [4]); 93.1 ± 2.5% on mGlu2 receptor (1 μM Glutamate + 1 μM compound); 102 ± 8.1% at mGlu2 receptor (3 μM Glutamate + 1 μM compound). Also, the Emax at mGlu2 receptor (setting [5]) worked out at 103 ± 6.2%; at mGlu2 receptor (setting [6]), 108 ± 12.3%. For the same compound, at mGlu2 receptor, the Emax at 1 µM worked out at 4.2 ± 2.7%.

As to `O=S(=O)(CC(F)(F)F)N(Cc1cccnc1)c1ccc(Oc2ccccc2)cc1` [Example 22, N-(4-(Phenoxy)phenyl)-N-(2,2,2-trifluoroethylsulfonyl)pyrid-3-ylmethylamine], the Emax on mGlu2 receptor (1 nM APDC + 3 μM compound) is 0.1 ± 0.7%; at mGlu2 receptor (1 nM DCG IV + 3 μM compound) it was -0.1 ± 0.6%; at mGlu2 receptor (30 nM APDC + 3 μM compound), 0.5 ± 1.5%; on mGlu2 receptor (30 nM DCG IV + 3 μM compound), 11.1 ± 6.1%; on mGlu2 receptor (100 nM APDC + 3 μM compound), 0.2 ± 0.6%; at mGlu2 receptor (100 nM DCG IV + 3 μM compound), 83.3 ± 10.5%. In addition, the Emax is 28.4 ± 1.7% on mGlu2 receptor (300 nM APDC + 3 μM compound); 133 ± 5.5% on mGlu2 receptor (300 nM DCG IV + 3 μM compound); 92 ± 3.4% at mGlu2 receptor (1 μM APDC + 3 μM compound); 141 ± 5.9% at mGlu2 receptor (1 μM DCG IV + 3 μM compound); 114 ± 0.8% at mGlu2 receptor (3 μM APDC + 3 μM compound); 153 ± 2.8% on mGlu2 receptor (3 μM DCG IV + 3 μM compound). Besides, the Emax at mGlu2 receptor (10 μM APDC + 3 μM compound) turned out to be 119 ± 4%; on mGlu2 receptor (10 μM DCG IV + 3 μM compound) it was 148 ± 1.5%; on mGlu2 receptor (30 μM APDC + 3 μM compound) it was 120 ± 10%; on mGlu2 receptor (30 μM DCG IV + 3 μM compound), 138 ± 7.1%. The Emax at 3 µM on mGlu2 receptor (APDC series) was 4.7 ± 0.4%; at mGlu2 receptor (DCG IV series), 3.7 ± 1.4%.

In general, melting point refers to the temperature, or range, at which the solid turns liquid. As to `O=S(=O)(CC(F)(F)F)N(Cc1cccnc1)c1cccc(Oc2ccccc2O)c1` [Example 23, N-(3-(2-Hydroxyphenoxy)phenyl)-N-(2,2,2-trifluoroethylsulfonyl)pyrid-3-ylmethylamine], the melting point is 57.5 to 60 °C.

`CCS(=O)(=O)N(Cc1cccnc1)c1cccc(-c2ccc(C#N)cc2)c1` [Example 590]: the figures for the “Percent Protection” value in the data set on mice (30 mg/kg ip) and in the data set with mice (100 mg/kg ip) were 60% and 100%, respectively.

With `CCS(=O)(=O)N(Cc1cccnc1F)c1ccc(Oc2ccc(F)cc2F)cc1` [Example 615, N-(4-(2,4-Difluorophenoxy)phenyl)-N-(ethanesulfonyl)-2-fluoropyrid-3-ylmethylamine], the melting point was 110 to 112 °C.

Consider `N[C@@H](CCC(=O)O)C(=O)O` [Glutamate, L-glutamate, reference compound], for which the “% Maximal Glutamate Response (as defined by 30 μM Glutamate) mean ± SD” value at mGlu2 receptor (0.5 μM L-glutamate alone) was 1.9 ± 1.0%.
